Assay results reported in patent US20240408093A1, “HETEROBIFUNCTIONAL COMPOUNDS AND THEIR USE IN TREATING DISEASE” (HALDA THERAPEUTICS OPCO, INC., priority 2022, published 2024).

How the values were obtained:
KRAS G12C [1] = biological target: T1, KRAS G12C (Homo sapiens, UniProt P01116, G12C); experiment: KRAS G12C cellular target engagement assay (SW1573 cells); assay type: cell-based; set-up: host or cells: SW1573; settings: 17 hours, read-out: TE50 (the source's name)
Protocol: SW1573 cells (ATCC CRL-2170) were cultured in RPMI 1640 (Gibco A1049101), supplemented with 10% Heat-inactivated FBS (Gibco Cat. #A38400-01) and 1% Penicillin/Streptomycin (Gibco Cat. #15140-122) in an incubator set at 37° C. and 5% CO2. Cells were seeded at 100,000 cells/ml in 1 ml of complete media in a 24-well, tissue culture-treated plate (Falcon 353226) and incubated overnight. Cells were treated with increasing concentrations of compound and let incubate at 37C and 5% CO2 for 17 hours, after which media was aspirated and cells were lysed in 75 uL RIPA Lysis and Extraction Buffer (Thermo 89901) supplemented with 5 mM MgCl2, Protease and Phosphatase inhibitor cocktail (Thermo 1861281), and Universal Nuclease (Thermo 88700). Plates with RIPA were shaken at 4° C. at 600 rpm for 15 min. After shaking samples, they were collected and spun down at 21,000 g for 15 min at 4° C. Following centrifugation, ˜10 ug of lysate was added to Laemmli Sample Buffer (Bio-Rad 1610747) plus 10% beta-mercaptoethanol, boiled for 15 minutes at 65° C. and loaded onto 12% Mini-PROTEAN TGX™ Precast Protein Gels (Bio-Rad). Protein was transferred to a nitrocellulose membrane (Thermo LC2000) using the iBlot 2 Dry Blotting System (Thermo). After transfer, membranes were washed in 1× TBST (Bioland Scientific LLC TBST0103) 3× for 5 min. Following the wash, blocking buffer (Rockland MB-070) was added for 1 hour at room temperature. Primary antibodies against KRAS (LifeSpan Bio LS-C175665) and actin (Cell Signaling Technology 8457) were added overnight at 4° C. Membranes were then washed again 3× for 5 min in 1× TBST. Secondary antibodies (LI-COR 926-68072 and 926-68073) were added and shaken for 1 hr at room temperature. Membranes were then washed 3× for 5 min in 1×TBST and developed. Membranes were placed on an Odyssey imager (LI-COR).
Target sequence in this assay (P01116 1-188 isoform P01116-2 G12C): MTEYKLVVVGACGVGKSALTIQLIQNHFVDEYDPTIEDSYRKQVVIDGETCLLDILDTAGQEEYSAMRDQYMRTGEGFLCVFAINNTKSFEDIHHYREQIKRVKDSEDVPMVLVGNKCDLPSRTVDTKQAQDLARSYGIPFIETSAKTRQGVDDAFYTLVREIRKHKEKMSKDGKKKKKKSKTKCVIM

KRAS G12C [2] = biological target: T1, KRAS G12C; experiment: KRAS G12C nucleotide exchange assay (SOS1-mediated, HTRF); assay type: biochemical; set-up: GST-tagged KRAS G12C (amino acids 2-169); settings: 1 hr pre-incubation
Protocol: KRAS target engagement (IC50 determination) was performed using a KRAS G12C nucleotide exchange assay. Specifically, compounds were tested against KRAS G12C in 10-point concentration IC50 mode with 3-fold serial dilution at a starting concentration of 10 μM. ARS1620 was used as a control.
Briefly, GST-tagged KRAS G12C (amino acids 2-169) was mixed with anti-GST Tb antibody (1.5× solution) and 10 μL was delivered to reaction wells. Compounds were delivered using an acoustic dispenser (Echo, Labcyte) and pre-incubated with protein for 1 hr at RT. KRAS/anti-GST Tb Ab/compound mixture was incubated for 1 hour at room temperature. A 3× solution of SOS1 (amino acids 564-1049) and GTP-DY-647P1 (GTP*) was prepared in reaction buffer. A 5 μL aliquot of SOS1/GTP* solution was added to reaction wells to initiate the exchange reaction. No-SOS1 reaction or max compound concentration was used as blank. The final concentrations of KRAS G12C, SOS1, and GTP* were 30 nM, 20 nM, and 0.15 μM, respectively. SOS1 mediated exchange of GDP to GTP-DY-647P was measured using HTRF (Ex/Em=(320-75/665-7.5; 615-8.5)) using an Envision Plate Reader (Perkin Elmer). IC50 determination was performed using a Sigmoidal dose response (variable slope) equation.
Target sequence in this assay (P01116 2-169 isoform P01116-2 G12C): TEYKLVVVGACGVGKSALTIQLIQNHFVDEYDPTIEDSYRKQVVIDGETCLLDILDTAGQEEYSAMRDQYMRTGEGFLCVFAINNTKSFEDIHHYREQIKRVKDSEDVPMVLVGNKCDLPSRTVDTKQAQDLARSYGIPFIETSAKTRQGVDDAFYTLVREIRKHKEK

HeLa cells (ATCC CCL-2) = experiment: Cellular growth inhibition assay, HeLa cells (Example 16); assay type: cell-based; settings: Homo sapiens, 72 hours, CellTiter-Glo 2.0
[3] = test system: HEK293 cells (ATCC CRL-1573); experiment: Cellular growth inhibition assay, HEK293 cells (Example 16); assay type: cell-based; settings: Homo sapiens, 72 hours, CellTiter-Glo 2.0

Row | SMILES | EC50 (KRAS G12C [1]) [nM] | IC50 (KRAS G12C [2]) [nM] | GI50 (HeLa cells (ATCC CCL-2)) [nM] | GI50 [3] [nM]
1 | C=C(COc1ccc(CN2C(=O)CCC(N3Cc4cc(CNC(=O)Nc5ccc(C)c(Cl)c5)ccc4C3=O)C2=O)cc1)C(=O)N1CCN(c2nc(OC[C@H]3CCCN3C)nc3c2CCN(c2cccc4cccc(Cl)c24)C3)C[C@@H]1CC#N (stereo in doubt) [Compound I-44] | 250 to 5000 | 100 to 5000 | > 10000 | > 10000
2 | C=C(COc1cc(Cl)cc(NC(=O)NCc2ccc3c(c2)CN(C2CCC(=O)NC2=O)C3=O)c1)C(=O)N1CCN(c2nc(OC[C@@H]3CCCN3C)nc3c2CCN(c2cccc4cccc(Cl)c24)C3)C[C@@H]1CC#N (stereo partly shown) [Compound I-35] | 250 to 5000 | < 100 | 1500 to 10000 | 1500 to 10000
3 | C=C(CN(C(=O)NCc1ccc2c(c1)CN(C1CCC(=O)NC1=O)C2=O)c1ccc(C)c(Cl)c1)C(=O)Nc1cc(Nc2ncc(-c3cn(C)c4ccccc34)cn2)c(OC)cc1N(C)CCN(C)C (stereo not shown) [Compound I-42] | – | – | 1500 to 10000 | 1500 to 10000
4 | C=C(COc1cc(Cl)cc(NC(=O)NCc2ccc3c(c2)CN(C2CCC(=O)NC2=O)C3=O)c1)C(=O)N[C@@H]1CN(c2nc(Nc3cn(C)nc3OC)c3ncn(C)c3n2)C[C@H]1F (stereo partly shown) [Compound I-45] | – | – | 1500 to 10000 | < 500
5 | C=C(COc1cc(Cl)c(OC)cc1NC(=O)NCc1ccc2c(c1)CN(C1CCC(=O)NC1=O)C2=O)C(=O)N1CCN(c2nc(OC[C@@H]3CCCN3C)nc3c2CCN(c2cccc4cccc(Cl)c24)C3)C[C@@H]1CC#N (stereo partly shown) [Compound I-46] | 250 to 5000 | < 100 | > 10000 | 500 to 1500
6 | C=C(COc1ccc(Cl)cc1NC(=O)NCc1ccc2c(c1)CN(C1CCC(=O)NC1=O)C2=O)C(=O)N[C@@H]1CN(c2nc(Nc3cn(C)nc3OC)c3ncn(C)c3n2)C[C@H]1F (stereo partly shown) [Compound I-47] | – | – | 500 to 1500 | < 500
7 | C=C(COc1cc(NC(=O)NCc2ccc3c(c2)CN(C2CCC(=O)NC2=O)C3=O)cc(C(F)(F)F)c1)C(=O)N1CCN(c2nc(OC[C@@H]3CCCN3C)nc3c2CCN(c2cccc4cccc(Cl)c24)C3)C[C@@H]1CC#N (stereo partly shown) [Compound I-48] | 250 to 5000 | < 100 | > 10000 | 1500 to 10000
8 | C=C(COc1cccc(NC(=O)NCc2ccc3c(c2)CN(C2CCC(=O)NC2=O)C3=O)c1)C(=O)N1CCN(c2nc(OC[C@@H]3CCCN3C)nc3c2CCN(c2cccc4cccc(Cl)c24)C3)C[C@@H]1CC#N (stereo partly shown) [Compound I-49] | < 250 | < 100 | > 10000 | > 10000
9 | C=C(COc1cc(NC(=O)NCc2ccc3c(c2)CN(C2CCC(=O)NC2=O)C3=O)cc(OC)c1)C(=O)N1CCN(c2nc(OC[C@@H]3CCCN3C)nc3c2CCN(c2cccc4cccc(Cl)c24)C3)C[C@@H]1CC#N (stereo partly shown) [Compound I-50] | 250 to 5000 | < 100 | > 10000 | > 10000
10 | C=C(COc1cc(Cl)cc(NC(=O)NCc2ccc3c(c2)CN(C2CCC(=O)NC2=O)C3=O)c1)C(=O)N1C[C@H](COc2nc(Nc3cnn(C)c3)nc3[nH]cc(Cl)c23)[C@@H](OC)C1 (stereo partly shown) [Compound I-54] | – | – | 1500 to 10000 | 500 to 1500
11 | C=C(COc1cc(Cl)cc(NC(=O)NCc2ccc3c(c2)CN(C2CCC(=O)NC2=O)C3=O)c1)C(=O)Nc1cccc(Oc2nc(Nc3ccc(N4CCN(C)CC4)cc3)nc3ccsc23)c1 (stereo not shown) [Compound I-55] | – | – | 1500 to 10000 | 500 to 1500
12 | C=C(COc1cc(Cl)cc(NC(=O)NCc2ccc3c(c2)CN(C2CCC(=O)NC2=O)C3=O)c1)C(=O)Nc1cc(Nc2nccc(-c3cn(C)c4ccccc34)n2)c(OC)cc1N(C)CCN(C)C (stereo not shown) [Compound I-59] | – | – | 1500 to 10000 | < 500
13 | C=C(COc1c(Cl)cccc1NC(=O)NCc1ccc2c(c1)CN(C1CCC(=O)NC1=O)C2=O)C(=O)Nc1cc(Nc2nccc(-c3cn(C)c4ccccc34)n2)c(OC)cc1N(C)CCN(C)C (stereo not shown) [Compound I-60] | – | – | 1500 to 10000 | 500 to 1500
14 | C=C(COc1cc(Cl)cc(NC(=O)NCc2ccc3c(c2)CN(C2CCC(=O)NC2=O)C3=O)c1)C(=O)Nc1cccc(-c2cccc3cnc(Nc4ccc(N5CCN(CCO)CC5)c(F)c4F)nc23)c1 (stereo not shown) [Compound I-61] | – | – | 1500 to 10000 | < 500
15 | C=C(COc1c(Cl)cccc1NC(=O)NCc1ccc2c(c1)CN(C1CCC(=O)NC1=O)C2=O)C(=O)N[C@@H]1CN(c2nc(Nc3cn(C)nc3OC)c3ncn(C)c3n2)C[C@H]1F (stereo partly shown) [Compound I-69] | – | – | 500 to 1500 | < 500
16 | C=C(CN(C(=O)NCc1ccc2c(c1)CN(C1CCC(=O)NC1=O)C2=O)c1ccc(C)c(Cl)c1)C(=O)Nc1cccc(Oc2nc(Nc3ccc(N4CCN(C)CC4)cc3)nc3ccsc23)c1 (stereo not shown) [Compound I-70] | – | – | > 10000 | 1500 to 10000
17 | C=C(CN(C(=O)NCc1ccc2c(c1)CN(C1CCC(=O)NC1=O)C2=O)c1ccc(C)c(Cl)c1)C(=O)N1C[C@@H](COc2nc(Nc3cnn(C)c3)nc3[nH]cc(Cl)c23)[C@H](OC)C1 (stereo partly shown) [Compound I-71] | – | – | > 10000 | 500 to 1500
18 | C=C(COC(=O)NCCc1ccc(Cl)cc1NC(=O)NCc1ccc2c(c1)CN(C1CCC(=O)NC1=O)C2=O)C(=O)N1CCN(c2nc(OC[C@@H]3CCCN3C)nc3c2CCN(c2cccc4cccc(Cl)c24)C3)C[C@@H]1CC#N (stereo partly shown) [Compound I-78] | < 250 | < 100 | – | > 10000
19 | C=C(COC(=O)NCCCc1ccc(Cl)cc1NC(=O)NCc1ccc2c(c1)CN(C1CCC(=O)NC1=O)C2=O)C(=O)N1CCN(c2nc(OC[C@@H]3CCCN3C)nc3c2CCN(c2cccc4cccc(Cl)c24)C3)C[C@@H]1CC#N (stereo partly shown) [Compound I-79] | < 250 | < 100 | – | > 10000
20 | C=C(COc1ccccc1NC(=O)NCc1ccc2c(c1)CN(C1CCC(=O)NC1=O)C2=O)C(=O)N1CCN(c2nc(OC[C@H]3CCCN3C)nc3c2CCN(c2cccc4cccc(Cl)c24)C3)C[C@H]1CC#N (stereo partly shown) [Compound I-80] | < 250 | < 100 | – | > 10000
21 | C=C(CN1C(=O)CCC(N2Cc3cc(CNC(=O)Nc4ccc(C)c(Cl)c4)ccc3C2=O)C1=O)C(=O)Nc1cc(Nc2ncc(-c3cn(C)c4ccccc34)cn2)c(OC)cc1N(C)CCN(C)C (stereo not shown) [Compound I-87] | – | – | < 500 | < 500
22 | C=C(COC(=O)n1c(CNc2nc(N3CCNCC3)nc3c(Br)cnn23)nc2cc(C)ccc21)C(=O)N1C[C@H](COc2nc(Nc3cnn(C)c3)nc3[nH]cc(Cl)c23)[C@@H](OC)C1 [Compound V-4] | – | – | 500 to 1500 | < 500
23 | C=C(COc1cc(-c2ccccn2)ccc1CNc1nc(N[C@H](CC)CO)nc2c1ncn2C(C)C)C(=O)N[C@@H]1CN(c2nc(Nc3cn(C)nc3OC)c3ncn(C)c3n2)C[C@H]1F [II-183] | – | – | < 500 | < 500
24 | C=C(COC(=O)N1CCN(c2nc(NCc3nc4cc(C)ccc4[nH]3)n3ncc(Br)c3n2)CC1)C(=O)N1C[C@H](COc2nc(Nc3cnn(C)c3)nc3[nH]cc(Cl)c23)[C@@H](OC)C1 [II-185] | – | – | 500 to 1500 | < 500
25 | C=C(CN1CCN(c2nc(NCc3nc4cc(C)ccc4[nH]3)n3ncc(Br)c3n2)CC1)C(=O)Nc1cc(Nc2nccc(-c3cn(C)c4ccccc34)n2)c(OC)cc1N(C)CCN(C)C [II-188] | – | – | < 500 | < 500
26 | C=C(CN1CCN(c2nc(NCc3nc4cc(C)ccc4[nH]3)n3ncc(Br)c3n2)CC1)C(=O)Nc1cccc(-c2cccc3cnc(Nc4ccc(N5CCN(CCO)CC5)c(F)c4F)nc23)c1 [II-191] | – | – | < 500 | < 500
